# “Also recorded” adds a separate entry of the source.
# How the values were obtained:
# [1] = tested on: HIV-1 induced apoptosis in human PBMCs; experiment: Annexin V-FITC FACS analysis of HIV-1 induced apoptosis in infected PBMCs; format: cell-based; settings: for inhibition of apoptosis induced by 4 subtype divergent primary HIV viral isolates: FIG. 1C
# Experimental: (§1) The human CD4^+ T cell line Jurkat, or the monocyte line U937 were obtained from the American Type Culture Collection (Rockville, Md.). Cells were passaged in RPMI1640 (Gibco-BRL, MD) supplemented with 10% FBS, 2 mM L-glutamine, 100 U/ml penicillin G, and 100 μg/ml streptomycin maintained at 37° C. and 5% CO2 and verified routinely to certify that they were Mycoplasma negative. Human PBMCs were isolated from healthy HIV-seronegative donors by Ficoll-Hypaque separation (Pharmacia Biotech AB, Sweden). Peripheral blood mononuclear cells (PBMCs) from healthy adults were incubated for 2 days with 5 μg/ml phytohemagglutinin (PHA, Sigma) before the addition of 5 U/ml of human recombinant interleukin-2 (hrIL-2; R&D system, MN).
# Viruses that were assayed in these studies included the pNL 4-3 (dual tropic) virus, which uses both CCR5 & CxCR4 receptors, and 89.6 (dual tropic), which uses CCR5 & CxCR4 receptors. In addition clade specific viruses were studied and these were obtained through the NIH AIDS research and Reference Reagent Program. For infection studies human PBMCs were isolated from normal, sero-negative donors, and infection was accomplished by incubating target cells with HIV-1 virus at a concentration of 100 TCID50/10^6 cells/ml. Culture supernatant was collected at 6, 12 and 24 hr intervals and assayed for virus production by measuring the p24 antigen released into the medium by ELISA (Coulter, FL) according to the manufacturer's instructions. Some data are presented as mean±SEM. For data presented as percent change, the base line (medium alone) value was subtracted from the value of each experimental condition as described in the legend.
# (§2) FACS analysis was performed to identify cells undergoing apoptosis. Equal numbers of cells from each test group were collected for analysis. Apoptosis in experimental cells was analyzed by using an Annexin-V assay kit from PharMingen (CA). Data was analyzed by the CELL Quest program (Beckton-Dickinson, CA). Caspase 3 activity was determined using Caspase-3/CPP32 colorimetric protease assay kit according to the manufacturer's instructions (MBL, Nagoya, Japan).
# Caspase 3 = experiment: Caspase-3/CPP32 colorimetric protease assay on lysates of HIV-1 infected cells; format: cell-based, human; settings: 89.6 or pNL4-3 virus; FIG. 1D
# Experimental: as §2
# [2] = tested on: FasL expression in HIV-infected Jurkat T cells; experiment: FasL expression by flow cytometry in HIV-infected Jurkat T cells; format: cell-based, human; settings: 1 μm, 89.6 or pNL4-3
# Experimental: as §1
# (§3) Viruses that were assayed in these studies included the pNL 4-3 (dual tropic) virus, which uses both CCR5 & CxCR4 receptors, and 89.6 (dual tropic), which uses CCR5 & CxCR4 receptors. In addition clade specific viruses were studied and these were obtained through the NIH AIDS research and Reference Reagent Program. […]
# (§4) Single cell suspensions were washed in PBS (pH 7.2) containing 0.2% bovine serum albumin and 0.1% NaN3. […] Data were analyzed using the CELL Quest program (Beckton-Dickinson, CA).
# [3] = tested on: FasL expression in HIV-infected PBMCs; experiment: FasL expression by flow cytometry in HIV-infected PBMCs; format: cell-based, human; settings: 1 μm; PBMC's; 89.6 or pNL4-3
# Experimental: as §1, §3, §4
# [4] = tested on: Nef driven FasL expression in Jurkat cells; experiment: FasL expression in Jurkat cells transfected with pNef; format: cell-based, human
# Source text: (§5) Constructs containing Nef were generated using overlap extension PCR at the indicated codons and were cloned into the pCDNA3.1 vector (InVitrogen, CA). The HIV-1 proviral infectious vector pNL4-3 was obtained through the NIH AIDS research and Reference Reagent Program. This vector has been rendered Nef deficient by 5′ frame shift mutation in the Nef region (He, J., Choe, et al, J. Virol. 69, 6705-6711 (1995) which is incorporated herein by reference).
# (§6) Single cell suspensions were washed in PBS (pH 7.2) containing 0.2% bovine serum albumin and 0.1% NaN3. Cells were incubated with PE labeled […]-CD95L antibody (NOK-1, 0.05 μg/ml, BD Pharmingen, CA, USA) antibody for 60 minutes at 4° C. Cells were washed with PBS and fixed with 2% paraformaldehyde and resuspended in 200 μl PBS and subjected to FACS (FL2 histogram) analysis (Beckton Dickinson, CA). Data were analyzed using the CELL Quest program (Beckton-Dickinson, CA).
# [5] = tested on: Nef mediated FasL expression in human PBMCs; experiment: p24gag / FasL flow cytometry in PBMCs infected with Nef positive pNL4-3 virus; format: cell-based; settings: 1 μM; PBMCs infected with pNL4-3 Wt (Nef positive) virus
# Source text: as §5
# To prepare infectious viral stocks, HIV-1 proviral DNA (pNL4-3 Wt and pNL4-3 and Nef delta) were generated as described Muthumani, K., et al, Journal of Biol. Chem. 277: 37820-37831 (2002). The viral titers were determined by infection of the human T cell line Jurkat using serially diluted virus supernatant. […] Viral stocks were normalized for virus content by infection and titration and stocks were stored in the presence of 10% FBS in aliquots at −80° C. until their use.
# as §6
# [6] = tested on: apoptosis of CD8+ T cells co-cultured with HIV infected macrophages; experiment: Bystander CD8+ T cell apoptosis induced by HIV infected macrophages (Annexin V); format: cell-based, human; settings: 1 μM; latex bead stimulated 89.6 infected macrophages with autologous CD8+ T cells
# Experimental: Monocyte-derived macrophages (MDM) were prepared from PBMCs obtained from healthy donors and incubated at 37° C. in polystyrene T-75 flasks for 4-10 hrs at 37° C. After the incubation the cells were washed with RPMI 1640 for 3 times to remove non-adherent cells. The adherent monocytes were detached with ethylene diamine tetra-acetic acid (EDTA) and the purity of the monocyte cell populations thus isolated was >98% as determined by FACS staining for CD14^+. The CD14^+ positive cells were incubated in 6-well plates at a density of 1×10^6 cells/ml in RPMI medium supplemented with 10% human serum.
# Human PBMC's were isolated from healthy HIV-seronegative donors as described above. Purified CD8^+ T cells were isolated from PBMC by negative immunoselection using magnetic beads (Dynal, CA), for depletion of CD4^+ T cells. The puity of the isolated CD8+ T cells was determined to be by flow >99% pure. MDM were purified from freshly isolated PBMC as described above. MDM cells were cultured in 6 well plates at 0.5×10^6 cells/ml/well with 10 ng/ml M-CSF (R&D systems, MN) in RPMI 1640/10% Human serum. […] The analysis was performed on a gated CD8^+ T-cells (R1) and further CD8^+ positive cells were analyzed for the CD8^+/Annexin V positive cells (R2 population) in all experimental samples to further analysis the Apoptosis.
# AP-1 = AP-1 dependent luciferase reporter assay in Nef transfected Jurkat cells; format: cell-based, human; settings: 1 μM; 24 hours
# Experimental: (§7) Jurkat cells (1×10^6) were seeded onto a 60 mm culture dish (Falcon) and elctrotransfected the cells next day with NF-κB or AP-1 dependent reporter plasmid (10 μg) with pNef (10 μg), and/with or without Cpd4 (1 μM). After 24 hours, transfected cells were lysed with Reporter lysis Buffer (RLB) according to the manufacturer's instructions (Roche, USA). Luciferase activity was measured via LUMAT LB9501 (Berthold, USA). β-Gal levels were used to normalize for transfection efficiency with the chemiluminescent β-Gal reporter gene Assay kit (Roche, USA).
# NF-κB = NF-κB dependent luciferase reporter assay in Nef transfected Jurkat cells; format: cell-based, human; settings: 1 μM; 24 hours
# Experimental: as §7
# p38 MAPK = experiment: Immunoblot of p38 and phospho-p38 in Nef treated Jurkat cells; format: cell-based, human; settings: 1 μM
# Experimental: Experimental cells were washed with ice-cold PBS, and the cells were lysed in protein lysis buffer (20 mM Tris (pH7.4), 150 mM NaCl, 1 mM EDTA, 1 mMEGTA, 1% triton, 2.5 mM sodium pyrophosphate, 1 mM □-glycerolphasphate, 1 mM Na3Vp4, 1 μM/ml leupeptin and 1 mM phenyl methyl-sulfonyl fluoride). After a brief sonication, the lysates were clarified by centrifugation at 10,000 rpm and protein content was measured by the Bradford method (Bio-Rad, CA).
# For Western blot analysis 50 μg of protein per lane was loaded onto acrylamide gels and separated by 12% SDS-PAGE and blotted to PVDF tmnsfer membrane. […] Further, the membrane was washed thoroughly using lxWestern re-probe buffer (Geno Tech, MO) and re immunoblotted with anti-actin (Calbiochem, CA) antibody, which recognizes the actin expression in cultured and serves cells as a positive control for gene expression and as an internal standard.
# c-Jun = experiment: Immunoblot of c-Jun in nuclear extracts of Nef treated cells; format: cell-based, human; settings: 1 μM
# Experimental: Experimental cells were washed with ice-cold PBS, and the cells were lysed in protein lysis buffer (20 mM Tris (pH7.4), 150 mM NaCl, 1 mM EDTA, 1 mMEGTA, 1% triton, 2.5 mM sodium pyrophosphate, 1 mM […]-glycerolphasphate, 1 mM Na3Vp4, 1 μM/ml leupeptin and 1 mM phenyl methyl-sulfonyl fluoride). After a brief sonication, the lysates were clarified by centrifugation at 10,000 rpm and protein content was measured by the Bradford method (Bio-Rad, CA). Nuclear extracts were prepared using NE-PER nuclear and cytoplasmic extraction reagents (Pierce, USA) and the protein concentration of the nuclear extract was determined by BCA-200 protein assay kit (Pierce, USA) assayed following the manufacturer's instructions.
# For Western blot analysis 50 μg of protein per lane was loaded onto acrylamide gels and separated by 12% SDS-PAGE and blotted to PVDF tmnsfer membrane. Immunoblot was carried out using the primary antibody (c-Jun, Phospho-p38 MAP Kinase (Thr180/Tyr182); Cell Signaling, MA, USA) and detected with secondary HRP-conjugated anti-rabbit IgG using Amersham ECL system. Further, the membrane was washed thoroughly using lxWestern re-probe buffer (Geno Tech, MO) and re immunoblotted with anti-actin (Calbiochem, CA) antibody, which recognizes the actin expression in cultured and serves cells as a positive control for gene expression and as an internal standard.
# p38 MAP Kinase = p38 MAP Kinase (Homo sapiens, UniProt Q16539); settings: cited from earlier work
# Chain of p38 MAP Kinase (Q16539 whole entry): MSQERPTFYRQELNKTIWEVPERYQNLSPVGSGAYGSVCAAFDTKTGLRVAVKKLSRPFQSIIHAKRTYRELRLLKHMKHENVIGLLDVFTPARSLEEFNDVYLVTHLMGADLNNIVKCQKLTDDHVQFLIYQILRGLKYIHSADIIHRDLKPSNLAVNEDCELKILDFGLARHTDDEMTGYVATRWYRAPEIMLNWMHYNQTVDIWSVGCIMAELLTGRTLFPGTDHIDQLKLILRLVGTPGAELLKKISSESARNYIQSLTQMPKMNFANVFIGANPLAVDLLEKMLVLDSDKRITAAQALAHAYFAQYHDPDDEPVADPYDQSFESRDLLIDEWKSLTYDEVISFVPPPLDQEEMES
SMILES,inhibition of apoptosis induced by 4 subtype divergent primary HIV viral isolates ([1]; 1 μM),"inhibition at 1 µM ([1]; Homo sapiens, PBMC, 96 h, read-out: inhibition of apoptosis driven by virus (Annexin V-FITC))",inhibition of Caspase 3 activity (Caspase 3),"inhibition of apoptosis driven by virus (Annexin V-FITC) ([1]; 1 μM, 89.6 or pNL4-3 virus, 4 days post infection)",inhibition of FasL induction [2],inhibition of FasL induction [3],inhibition of Nef driven induction of FasL [4],inhibition of Nef mediated FasL expression [5],blocking of bystander CD8+ T cell apoptosis [6],blocking of Nef activation of AP-1 reporter (AP-1),blocking of Nef activation of NF-κB reporter (NF-κB),total levels of p38 (p38 MAPK),Nef induced phosphorylation of p38 (p38 MAPK; 15-min exposure),Nef mediated phosphorylation / activation of c-Jun (c-Jun),inhibition of p38 MAP Kinase (p38 MAP Kinase; at 1 μM concentrations),anti-p38 activity compared with SB203580 (p38 MAP Kinase)
"C[S+]([O-])c1ccc(-c2nc(-c3ccc(F)cc3)c(-c3ccncc3)[nH]2)cc1 (stereo not drawn) [SB203580, 4-[5-(4-Fluoro-phenyl)-2-(4-methanesulfinyl-phenyl)-3H-imidazol4-yl]-pyridine, reference compound]",could inhibit apoptosis,> 50%,~50%,,,,,,,,,,,,,
"OCCC#Cc1nc(-c2ccc(F)cc2)c(-c2ccncc2)n1CCCc1ccccc1 [Cpd4, 4-(4-Fluorophenyl)-2-(4-hydroxybutyn-1-yl)-1-(3-phenylpropyl)-5-(4-pyridyl)imidazole]",could inhibit apoptosis,,~80%,over 80%,Strong inhibition of FasL induction; also recorded: severely repressed the surface expression of FasL,Strong inhibition of FasL induction; also recorded: severely repressed the surface expression of FasL,potent inhibition of Nef driven induction of FasL; also recorded: thoroughly repressed Nef-induced FasL expression; also recorded: highly suppressed; also recorded: could prevent Nef driven FasL activation,aborted completely; also recorded: completely inhibited,effectively blocked bystander apoptosis; also recorded: could prevent Nef driven apoptosis of bystander cells,effectively blocked this effect,effectively blocked this effect,did not alter the total levels of p38,no detectable increase in the phosphorylation of p38,decrease in the phosphorylated status of c-Jun; also recorded: can be blocked,inhibit p38 MAP Kinase,higher anti-p38 activity
